Key:
Format in all cases: physicochemical
[1] = Solubility of ticagrelor in SBECD (appearance on shaking platform)
Method: In a first example two different types of cyclodextrin were used and compared for the solubilization of ticagrelor. An unbuffered stock solution of HPβCD or SBECD was made in water at the target concentrations of 20 w/w %, 25 w/w %, 30 w/w %, 35 w/w % and 40 w/w %. Ticagrelor was added slowly under vortex. Ticagrelor was used at concentrations of 5, 10 or 14 mg/ml in milli Q water. The ticagrelor-cyclodextrin solutions were left on a shaking platform. No sonification or heat was applied.

[2] = pH and osmolality determination in undiluted batches; conditions: 19 mM phosphate buffer pH 7.5
Text: From the results obtained in Example 4 it follows that the concentration of excipients may be such that the resulting ticagrelor solution is hypertonic. The osmolality and pH of several batches was checked.

[3] = Diluent tests of 5 mg/ml ticagrelor-cyclodextrin solutions; conditions: for Appearance, undiluted: 5 mg/ml; for Appearance in 5% dextrose / Appearance in NaCl 0.9%: diluted to 0.1 mg/ml
Method: 5 mg/ml ticagrelor-cyclodextrin solutions with varying amounts of HPβCD were diluted with normal saline, 5% dextrose solution or Ringer's lactate solution. The stability was screened.

[4] = SBECD 20% w/w, ticagrelor 5 mg/ml
[5] = SBECD 20% w/w, ticagrelor 10 mg/ml
[6] = SBECD 20% w/w, ticagrelor 14 mg/ml
[7] = SBECD 25% w/w, ticagrelor 5 mg/ml
[8] = SBECD 25% w/w, ticagrelor 10 mg/ml
[9] = SBECD 25% w/w, ticagrelor 14 mg/ml
[10] = SBECD 30% w/w, ticagrelor 5 mg/ml
[11] = SBECD 30% w/w, ticagrelor 10 mg/ml
[12] = SBECD 30% w/w, ticagrelor 14 mg/ml
[13] = SBECD 35% w/w, ticagrelor 5 mg/ml
[14] = SBECD 35% w/w, ticagrelor 10 mg/ml
[15] = SBECD 35% w/w, ticagrelor 14 mg/ml
[16] = SBECD 40% w/w, ticagrelor 5 mg/ml
[17] = SBECD 40% w/w, ticagrelor 10 mg/ml
[18] = SBECD 40% w/w, ticagrelor 14 mg/ml

CCCSc1nc(N[C@@H]2C[C@H]2c2ccc(F)c(F)c2)c2nnn([C@@H]3C[C@H](OCCO)[C@@H](O)[C@H]3O)c2n1 [Ticagrelor, (1S,2S,3R,5S)-3-{7-[(1R,2S)-2-(3,4-difluorophenyl)cyclopropylamino]5-(propylthio)-3H-(1,2,3)triazolo (4,5-D)pyrimidin-3-yl}-5-(2 hydroxyethoxy)cyclopentane-1,2-diol]
Appearance After 5 min of shaking [1, 4]: − (translucent solution with precipitation) | Appearance After 30 min of shaking [1, 4]: − (translucent solution with precipitation) | Appearance After 60 min of shaking [1, 4]: − (translucent solution with precipitation) | Appearance After 3 h of shaking [1, 4]: − (translucent solution with precipitation) | Appearance After overnight shaking [1, 4]: − (translucent solution with precipitation) | Appearance After 5 min of shaking [1, 5]: − (translucent solution with precipitation) | Appearance After 30 min of shaking [1, 5]: − (translucent solution with precipitation) | Appearance After 60 min of shaking [1, 5]: − (translucent solution with precipitation) | Appearance After 3 h of shaking [1, 5]: − (translucent solution with precipitation) | Appearance After overnight shaking [1, 5]: − (translucent solution with precipitation) | Appearance After 5 min of shaking [1, 6]: − (translucent solution with precipitation) | Appearance After 30 min of shaking [1, 6]: − (translucent solution with precipitation) | Appearance After 60 min of shaking [1, 6]: − (translucent solution with precipitation) | Appearance After 3 h of shaking [1, 6]: − (translucent solution with precipitation) | Appearance After overnight shaking [1, 6]: − (translucent solution with precipitation) | Appearance After 5 min of shaking [1, 7]: − (translucent solution with precipitation) | Appearance After 30 min of shaking [1, 7]: − (translucent solution with precipitation) | Appearance After 60 min of shaking [1, 7]: − (translucent solution with precipitation) | Appearance After 3 h of shaking [1, 7]: − (translucent solution with precipitation) | Appearance After overnight shaking [1, 7]: − (translucent solution with precipitation) | Appearance After 5 min of shaking [1, 8]: − (translucent solution with precipitation) | Appearance After 30 min of shaking [1, 8]: − (translucent solution with precipitation) | Appearance After 60 min of shaking [1, 8]: − (translucent solution with precipitation) | Appearance After 3 h of shaking [1, 8]: − (translucent solution with precipitation) | Appearance After overnight shaking [1, 8]: − (translucent solution with precipitation) | Appearance After 5 min of shaking [1, 9]: − (translucent solution with precipitation) | Appearance After 30 min of shaking [1, 9]: − (translucent solution with precipitation) | Appearance After 60 min of shaking [1, 9]: − (translucent solution with precipitation) | Appearance After 3 h of shaking [1, 9]: − (translucent solution with precipitation) | Appearance After overnight shaking [1, 9]: − (translucent solution with precipitation) | Appearance After 5 min of shaking [1, 10]: − (translucent solution with precipitation) | Appearance After 30 min of shaking [1, 10]: − (translucent solution with precipitation) | Appearance After 60 min of shaking [1, 10]: − (translucent solution with precipitation) | Appearance After 3 h of shaking [1, 10]: − (translucent solution with precipitation) | Appearance After overnight shaking [1, 10]: − (translucent solution with precipitation) | Appearance After 5 min of shaking [1, 11]: − (translucent solution with precipitation) | Appearance After 30 min of shaking [1, 11]: − (translucent solution with precipitation) | Appearance After 60 min of shaking [1, 11]: − (translucent solution with precipitation) | Appearance After 3 h of shaking [1, 11]: − (translucent solution with precipitation) | Appearance After overnight shaking [1, 11]: − (translucent solution with precipitation) | Appearance After 5 min of shaking [1, 12]: − (translucent solution with precipitation) | Appearance After 30 min of shaking [1, 12]: − (translucent solution with precipitation) | Appearance After 60 min of shaking [1, 12]: − (translucent solution with precipitation) | Appearance After 3 h of shaking [1, 12]: − (translucent solution with precipitation) | Appearance After overnight shaking [1, 12]: − (translucent solution with precipitation) | Appearance After 5 min of shaking [1, 13]: − (translucent solution with precipitation) | Appearance After 30 min of shaking [1, 13]: +/− | Appearance After 60 min of shaking [1, 13]: +/− | Appearance After 3 h of shaking [1, 13]: +/− | Appearance After overnight shaking [1, 13]: − (translucent solution with precipitation) | Appearance After 5 min of shaking [1, 14]: − (translucent solution with precipitation) | Appearance After 30 min of shaking [1, 14]: − (translucent solution with precipitation) | Appearance After 60 min of shaking [1, 14]: − (translucent solution with precipitation) | Appearance After 3 h of shaking [1, 14]: − (translucent solution with precipitation) | Appearance After overnight shaking [1, 14]: − (translucent solution with precipitation) | Appearance After 5 min of shaking [1, 15]: − (translucent solution with precipitation) | Appearance After 30 min of shaking [1, 15]: − (translucent solution with precipitation) | Appearance After 60 min of shaking [1, 15]: − (translucent solution with precipitation) | Appearance After 3 h of shaking [1, 15]: − (translucent solution with precipitation) | Appearance After overnight shaking [1, 15]: − (translucent solution with precipitation) | Appearance After 5 min of shaking [1, 16]: − (translucent solution with precipitation) | Appearance After 30 min of shaking [1, 16]: +/− | Appearance After 60 min of shaking [1, 16]: +/− | Appearance After 3 h of shaking [1, 16]: +/− | Appearance After overnight shaking [1, 16]: + (clear, appeared completely dissolved) | Appearance After 5 min of shaking [1, 17]: − (translucent solution with precipitation) | Appearance After 30 min of shaking [1, 17]: − (translucent solution with precipitation) | Appearance After 60 min of shaking [1, 17]: − (translucent solution with precipitation) | Appearance After 3 h of shaking [1, 17]: − (translucent solution with precipitation) | Appearance After overnight shaking [1, 17]: − (translucent solution with precipitation) | Appearance After 5 min of shaking [1, 18]: − (translucent solution with precipitation) | Appearance After 30 min of shaking [1, 18]: − (translucent solution with precipitation) | Appearance After 60 min of shaking [1, 18]: − (translucent solution with precipitation) | Appearance After 3 h of shaking [1, 18]: − (translucent solution with precipitation) | Appearance After overnight shaking [1, 18]: − (translucent solution with precipitation) | Assay ([2]; HPβCD 22.5% w/w): 98.15% | Osmolality undiluted ([2]; HPβCD 22.5% w/w): 392 mOsm/kg | Total Impurities ([2]; HPβCD 22.5% w/w): 0.39% | pH undiluted ([2]; HPβCD 22.5% w/w): 7.67 | Assay ([2]; HPβCD 25.0% w/w): 103.23% | Osmolality undiluted ([2]; HPβCD 25.0% w/w): 493 mOsm/kg | Total Impurities ([2]; HPβCD 25.0% w/w): 0.41% | pH undiluted ([2]; HPβCD 25.0% w/w): 7.69 | Assay ([2]; HPβCD 27.5% w/w): 104.27% | Osmolality undiluted ([2]; HPβCD 27.5% w/w): 549 mOsm/kg | Total Impurities ([2]; HPβCD 27.5% w/w): 0.42% | pH undiluted ([2]; HPβCD 27.5% w/w): 7.69 | Assay ([2]; HPβCD 30.0% w/w): 107.64% | Osmolality undiluted ([2]; HPβCD 30.0% w/w): 638 mOsm/kg | Total Impurities ([2]; HPβCD 30.0% w/w): 0.44% | pH undiluted ([2]; HPβCD 30.0% w/w): 7.74 | Assay ([2]; HPβCD 32.5% w/w): 99.26% | Osmolality undiluted ([2]; HPβCD 32.5% w/w): 813 mOsm/kg | Total Impurities ([2]; HPβCD 32.5% w/w): 0.41% | pH undiluted ([2]; HPβCD 32.5% w/w): 7.68 | Appearance, undiluted ([3]; HPβCD 22.5% w/w): Turbid; clear after heating to 40 °C | Appearance, undiluted ([3]; HPβCD 25.0% w/w): Turbid; clear after heating to 40 °C | Appearance, undiluted ([3]; HPβCD 27.5% w/w): Turbid; clear after heating to 40 °C | Appearance, undiluted ([3]; HPβCD 30.0% w/w): Clear solution | Appearance, undiluted ([3]; HPβCD 32.5% w/w): Clear solution | Appearance in 5% dextrose ([3]; HPβCD 22.5% w/w): Clear solution | Appearance in NaCl 0.9% ([3]; HPβCD 22.5% w/w): Turbid | Appearance in 5% dextrose ([3]; HPβCD 25.0% w/w): Clear solution | Appearance in NaCl 0.9% ([3]; HPβCD 25.0% w/w): Turbid | Appearance in 5% dextrose ([3]; HPβCD 27.5% w/w): Clear solution | Appearance in NaCl 0.9% ([3]; HPβCD 27.5% w/w): Turbid | Appearance in 5% dextrose ([3]; HPβCD 30.0% w/w): Clear solution | Appearance in NaCl 0.9% ([3]; HPβCD 30.0% w/w): Turbid | Appearance in 5% dextrose ([3]; HPβCD 32.5% w/w): Clear solution | Appearance in NaCl 0.9% ([3]; HPβCD 32.5% w/w): Clear solution | Appearance with diluent ([3]; Normal saline and Ringer's lactate solution as diluent): turbid solutions

— patent US20250235455A1, “AQUEOUS TICAGRELOR SOLUTIONS, METHOD OF MANUFACTURING AND USES” (HYLORIS DEVELOPMENTS SA, priority 2022, published 2025)
